Reference: patent publication US7138231B2 (priority 2000, dated 2006)
“Also recorded” adds a separate entry of the source. Read-outs that look alike come from different tables or passages of the source.

Assays:
HIV-2 = conditions: cited from earlier work
[1] = system: HIV-1 patient viruses with protease L90M; test: Phenotypic susceptibility profiles of 333 patient virus samples with L90M (not 30 or 50); assay type: cell-based
[2] = system: HIV-1 variants with protease substitutions; conditions: cited from earlier work
[3] = system: HIV-1 patient-derived protease and reverse transcriptase segments (N88S in PR) in resistance test vectors; test: Phenotypic drug susceptibility test with resistance test vectors from patient samples; assay type: cell-based; conditions: for Fold Change vs. reference: N88S
HIV-1 = conditions: cited from earlier work
[4] = system: HIV-1 patient viruses with protease L90M; test: Phenotypic susceptibility profiles of 58 patient virus samples with L90M, no other primary mutations; assay type: cell-based; conditions: {}
[5] = molecular target: HIV-1 protease mutants (I50V, M46I/I47V/I50V, L10F, M46I, I47V) (Human immunodeficiency virus type 1 group M subtype B, UniProt P04585, I535V/I538V/M534I); conditions: triple mutant M46I/I47V/I50V; cited from earlier work
[6] = molecular target: HIV-1 protease mutants (I50V, M46I/I47V/I50V, L10F, M46I, I47V) (Human immunodeficiency virus type 1 group M subtype B, UniProt P04585, I538V); conditions: I50V single-mutant protease; cited from earlier work
[7] = system: HIV-1 protease mutants (I50V, M46I/I47V/I50V, L10F, M46I, I47V); conditions: single mutants L10F, M46I, and I47V; cited from earlier work
[8] = system: HIV-1 protease site-directed mutants (N88S, L63P, V77I, M46L) in resistance test vector; test: Phenotypic susceptibility assay of resistance test vectors with site-directed mutations in PR
Text: The resistance test vectors containing a functional luciferase gene cassette were constructed and host cells were transfected with the resistance test vector DNA. […] The resistance test vector viral particles produced by transfecting the resistance test vector DNA into host cells, either in the presence or absence of protease inhibitors, were used to infect target host cells grown either in the absence of NRTI or NNRTI or in the presence of increasing concentrations of the drug. Luciferase activity in infected target host cells in the presence of drug was compared to the luciferase activity in infected target host cells in the absence of drug. […] The IC50 values were determined by plotting percent drug inhibition vs. log10 drug concentration.
Host cells were seeded in 10-cm-diameter dishes and were transfected one day after plating with resistance test vector plasmid DNA and the envelope expression vector. Transfections were performed using a calcium-phosphate co-precipitation procedure. The cell culture media containing the DNA precipitate was replaced with fresh medium, from one to 24 hours, after transfection. Cell culture media containing resistance test vector viral particles was harvested one to four days after transfection and was passed through a 0.45-mm filter before being stored at −80° C. HIV capsid protein (p24) levels in the harvested cell culture media were determined by an EIA method as described by the manufacturer (SIAC; Frederick, Md.). Before infection, target cells (293 and 293/T) were plated in cell culture media. Control infections were performed using cell culture media from mock transfections (no DNA) or transfections containing the resistance test vector plasmid DNA without the envelope expression plasmid. One to three or more days after infection the media was removed and cell lysis buffer (Promega) was added to each well. Cell lysates were assayed for luciferase activity. The inhibitory effect of the drug was determined using the following equation: % luciferase inhibition=[1−(RLUluc[drug]RLUluc)]×100 where RLUluc [drug] is the relative light unit of luciferase activity in infected cells in the presence of drug and RLUluc is the Relative Light Unit of luciferase activity in infected cells in the absence of drug. IC50 values were obtained from the sigmoidal curves that were generated from the data by plotting the percent inhibition of luciferase activity vs. the log10 drug concentration.
Mutations are introduced into the resistance test vector through any of the widely known methods for site-directed mutagenesis. […] A resistance test vector containing the specific mutation or group of mutations are then tested using the phenotypic susceptibility assay described above and the susceptibility profile is compared to that of a genetically defined wild-type (drug susceptible) resistance test vector which lacks the specific mutations.
Resistance test vectors were constructed containing the N88S mutation alone and in combination with other substitutions in PR (L63P, V77I and M46L) known to modulate the HIV susceptibility to PRIs. Mutations were introduced into the resistance test vector using the mega-primer PCR method for site-directed mutagenesis.

Structure (SMILES): CC(C)CN(C[C@@H](O)[C@H](Cc1ccccc1)NC(=O)O[C@H]1CCOC1)S(=O)(=O)c1ccc(N)cc1 [amprenavir]
- IC50 (HIV-2): 340 nM
- wt % > 2.5 ([1]; Amprenavir FC>2.5, L90M, position 10 wild type): 30.8%
- wt % > 2.5 ([1]; Amprenavir FC>2.5, L90M, position 15 wild type): 63.6%
- wt % > 2.5 ([1]; Amprenavir FC>2.5, L90M, position 33 wild type): 57.4%
- wt % > 2.5 ([1]; Amprenavir FC>2.5, L90M, position 36 wild type): 55.3%
- wt % > 2.5 ([1]; Amprenavir FC>2.5, L90M, position 46 wild type): 46.2%
- wt % > 2.5 ([1]; Amprenavir FC>2.5, L90M, position 53 wild type): 57.6%
- wt % > 2.5 ([1]; Amprenavir FC>2.5, L90M, position 54 wild type): 47.5%
- wt % > 2.5 ([1]; Amprenavir FC>2.5, L90M, position 58 wild type): 58.7%
- wt % > 2.5 ([1]; Amprenavir FC>2.5, L90M, position 62 wild type): 55.3%
- wt % > 2.5 ([1]; Amprenavir FC>2.5, L90M, position 74 wild type): 62.5%
- wt % > 2.5 ([1]; Amprenavir FC>2.5, L90M, position 82 wild type): 53.5%
- wt % > 2.5 ([1]; Amprenavir FC>2.5, L90M, position 84 wild type): 48.5%
- wt % > 2.5 ([1]; Amprenavir FC>2.5, L90M, position 89 wild type): 59.3%
- wt % > 2.5 ([1]; Amprenavir FC>2.5, L90M, position 92 wild type): 58.6%
- wt % > 2.5 ([1]; Amprenavir FC>2.5, L90M, position 95 wild type): 58.7%
- mt % > 2.5 ([1]; Amprenavir FC>2.5, listed as 90: all samples with L90M): 60.4%
- wt % > 10 ([1]; Amprenavir FC>10, L90M, position 10 wild type): 2.6%
- wt % > 10 ([1]; Amprenavir FC>10, L90M, position 13 wild type): 10.9%
- wt % > 10 ([1]; Amprenavir FC>10, L90M, position 32 wild type): 11.7%
- wt % > 10 ([1]; Amprenavir FC>10, L90M, position 33 wild type): 8.4%
- wt % > 10 ([1]; Amprenavir FC>10, L90M, position 46 wild type): 8.3%
- wt % > 10 ([1]; Amprenavir FC>10, L90M, position 47 wild type): 11.9%
- wt % > 10 ([1]; Amprenavir FC>10, L90M, position 53 wild type): 11.5%
- wt % > 10 ([1]; Amprenavir FC>10, L90M, position 54 wild type): 5.9%
- wt % > 10 ([1]; Amprenavir FC>10, L90M, position 55 wild type): 11.6%
- wt % > 10 ([1]; Amprenavir FC>10, L90M, position 66 wild type): 11.9%
- wt % > 10 ([1]; Amprenavir FC>10, L90M, position 69 wild type): 14.2%
- wt % > 10 ([1]; Amprenavir FC>10, L90M, position 84 wild type): 8.7%
- % > 10 ([1]; Amprenavir FC>10, listed as 90: all samples with L90M): 12.9%
- Percent of viruses with indicated primary mutation(s) with reduced susceptibility (fold change in IC50 > 2.5) ([1]; L90M): 60.4%
- Percent of viruses with indicated primary mutation(s) with reduced susceptibility (fold change in IC50 > 10) ([1]; L90M): 12.9%
- decrease in susceptibility ([2]; I50V as a single mutation): two- to threefold
- resistance of selected variants ([2]; in vitro passage, L10F, M46I, I47V, I50V): 100 fold
- change in susceptibility ([2]; other substitutions as single mutations in HXB2): did not result in reduced susceptibility
- fold less susceptible than wild-type virus ([2]; triple mutant clone M46I, I47V, I50V): 20 fold
- Fold Change vs. reference ([3]; patient sample 360, prior PRI IDV, PR I13V, K20M, M36V, N37A, M46I, I62V, L63P, I93L): 0.15 fold
- Fold Change vs. reference ([3]; patient sample 627, prior PRI IDV, PR I13I/V, E35D, M46L, L63P, I64V, I73V): 0.09 fold
- Fold Change vs. reference ([3]; patient sample 0732, prior PRI NFV, PR K14R, I15V, K20T, E35D, M36I, R41K, I62V, L63Q): 0.08 fold
- Fold Change vs. reference ([3]; patient sample 0910, prior PRI NFV, PR M46I, L63P, V77I, I93I/L): 0.16 fold
- Fold Change vs. reference ([3]; patient sample 1208, prior PRI NFV, PR I62V, L63P, V77I): 0.10 fold
- Fold Change vs. reference ([3]; patient sample 3542, prior PRI IDV, PR I13V, K14R, N37D, M46I, L63P, I93L): 0.16 fold
- Fold Change vs. reference ([3]; patient sample 3654, PR I13V, R41K, M46I, L63P, V77I, I93L): 0.20 fold
- change in susceptibility ([3]; patient sample RTV-360): increase
- change in susceptibility ([3]; patient sample RTV-627): increase
- change in susceptibility ([3]; patient sample RTV-0732): increase; also recorded: increased susceptibility
- change in susceptibility ([3]; patient sample RTV-0910): increase
- change in susceptibility ([3]; patient sample RTV-1208): increase
- change in susceptibility ([3]; patient sample RTV-3542): increase
- change in susceptibility ([3]; patient sample RTV-3654): increase
- IC50 (HIV-1; read-out: IC50): 80 nM
- IC50 (HIV-1; read-out: mean IC50): 12 nM
- Percent of viruses with indicated primary mutation(s) which are drug sensitive (fold change in IC50 < 2.5) [4]: 65.5%
- fold-reduced Kl compared to wild-type enzyme [5]: 270 fold
- fold reduction in the inhibition constant (Kl) compared to wild-type enzyme [6]: 80 fold
- affinity [7]: did not display reduced affinity
- change in susceptibility compared to wild type control RTV ([8]; L63P-N88S-RTV): increase in the susceptibility
- change in susceptibility compared to wild type control RTV ([8]; L63P-V77I-N88S-RTV): increase in the susceptibility; also recorded: increased susceptibility
- change in susceptibility compared to wild type control RTV ([8]; M46L-L63P-N88S-RTV): increase in the susceptibility
- change in susceptibility compared to wild type control RTV ([8]; M46L-L63P-V77I-N88S-RTV): increase in the susceptibility
- change in susceptibility compared to wild type control RTV ([8]; N88S-RTV): more susceptible
- Fold Change vs. reference ([8]; site-directed mutation N88S): 0.04 fold
- Fold Change vs. reference ([8]; site-directed mutations L63P): 1.06 fold
- Fold Change vs. reference ([8]; site-directed mutations L63P, N88S): 0.11 fold
- Fold Change vs. reference ([8]; site-directed mutations L63P, V77I): 0.91 fold
- Fold Change vs. reference ([8]; site-directed mutations L63P, V77I, N88S): 0.08 fold
- Fold Change vs. reference ([8]; site-directed mutations M46L, L63P, N88S): 0.12 fold
- Fold Change vs. reference ([8]; site-directed mutations M46L, L63P, V77I, N88S): 0.14 fold
